This note sets out measurements from patent US9815796B2 (Merck Sharp & Dohme Corp., priority 2013, dated 2017).

One assay deals with Rhesus PDE2A3 (Macaca mulatta, UniProt B3VTJ2). Briefly: PDE2 fluorescence polarization (IMAP FP) inhibition assay, rhesus enzyme. The class given is biochemical, rhesus macaque. The method, boiled down: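 Rhesus PDE2A3 came from lysate of transiently transfected AD293 cells, diluted to give 20% substrate conversion. Substrate was 50 nM FAM-cAMP with 1 uM cGMP activator in Tris pH 7.2/MgCl2 buffer, run 60 min at room temperature over 10-point 3-fold dilutions in 1% DMSO. Read-out was IMAP fluorescence polarization (mP) after ≥1 h binding.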
A general note: Fluorescence polarisation rises when a labelled molecule tumbles more slowly, as on binding a larger partner.

A further assay deals with human PDE2A1 (Homo sapiens (Human), UniProt O00408). The assay can be described thus: IMAP FP PDE selectivity panel, human PDE2A1. The class given is biochemical. The method, boiled down: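 GST-tagged human PDE2A1 expressed in insect cells, run at room temperature for 60 min with 50 nM FAM-cAMP containing 1000 nM cGMP, pH 7.2 Tris/MgCl2 buffer. IMAP fluorescence polarization read after binding step.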

Setting [1] is: Rhesus PDE2, Lab A, read-out: Rhesus PDE2 Ki (nM) - Lab A.
The mark [2] stands for this setting: Rhesus PDE2, Lab B, read-out: Rhesus PDE2 Ki (nM) - Lab B.
The mark [3] stands for this setting: Human PDE2, Lab A, read-out: Human PDE2 Ki (nM) - Lab A.
The mark [4] stands for this setting: Human PDE2, Lab B, read-out: Human PDE2 Ki (nM) - Lab B.

Where two headings read alike, the source gives them in different places.

Chain of human PDE2A1 (O00408 other isoform, or with tags, fused parts or gaps): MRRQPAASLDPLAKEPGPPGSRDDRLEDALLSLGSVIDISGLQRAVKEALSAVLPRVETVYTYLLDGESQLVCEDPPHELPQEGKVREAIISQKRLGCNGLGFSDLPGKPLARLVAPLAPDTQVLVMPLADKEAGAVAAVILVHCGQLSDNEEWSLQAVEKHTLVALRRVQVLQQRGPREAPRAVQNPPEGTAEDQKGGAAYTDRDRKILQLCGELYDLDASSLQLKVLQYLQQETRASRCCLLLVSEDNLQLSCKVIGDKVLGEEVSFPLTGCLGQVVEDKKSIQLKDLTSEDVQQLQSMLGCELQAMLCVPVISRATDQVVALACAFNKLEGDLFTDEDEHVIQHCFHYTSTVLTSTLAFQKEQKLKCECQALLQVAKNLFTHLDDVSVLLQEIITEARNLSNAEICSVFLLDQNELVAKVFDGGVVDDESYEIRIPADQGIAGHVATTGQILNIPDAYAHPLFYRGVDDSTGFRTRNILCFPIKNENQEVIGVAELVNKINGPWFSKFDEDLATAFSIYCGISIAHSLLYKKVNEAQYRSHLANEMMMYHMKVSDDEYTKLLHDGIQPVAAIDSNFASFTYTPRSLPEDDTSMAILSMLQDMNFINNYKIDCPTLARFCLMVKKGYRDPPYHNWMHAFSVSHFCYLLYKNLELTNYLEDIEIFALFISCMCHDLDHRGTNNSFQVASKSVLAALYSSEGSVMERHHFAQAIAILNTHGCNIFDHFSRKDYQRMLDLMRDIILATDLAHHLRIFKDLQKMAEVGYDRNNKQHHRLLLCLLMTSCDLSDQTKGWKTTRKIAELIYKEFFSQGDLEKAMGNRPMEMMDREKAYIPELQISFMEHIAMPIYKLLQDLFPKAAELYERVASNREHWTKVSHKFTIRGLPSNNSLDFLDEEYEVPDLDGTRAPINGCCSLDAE
Chain of Rhesus PDE2A3 (B3VTJ2 1-941): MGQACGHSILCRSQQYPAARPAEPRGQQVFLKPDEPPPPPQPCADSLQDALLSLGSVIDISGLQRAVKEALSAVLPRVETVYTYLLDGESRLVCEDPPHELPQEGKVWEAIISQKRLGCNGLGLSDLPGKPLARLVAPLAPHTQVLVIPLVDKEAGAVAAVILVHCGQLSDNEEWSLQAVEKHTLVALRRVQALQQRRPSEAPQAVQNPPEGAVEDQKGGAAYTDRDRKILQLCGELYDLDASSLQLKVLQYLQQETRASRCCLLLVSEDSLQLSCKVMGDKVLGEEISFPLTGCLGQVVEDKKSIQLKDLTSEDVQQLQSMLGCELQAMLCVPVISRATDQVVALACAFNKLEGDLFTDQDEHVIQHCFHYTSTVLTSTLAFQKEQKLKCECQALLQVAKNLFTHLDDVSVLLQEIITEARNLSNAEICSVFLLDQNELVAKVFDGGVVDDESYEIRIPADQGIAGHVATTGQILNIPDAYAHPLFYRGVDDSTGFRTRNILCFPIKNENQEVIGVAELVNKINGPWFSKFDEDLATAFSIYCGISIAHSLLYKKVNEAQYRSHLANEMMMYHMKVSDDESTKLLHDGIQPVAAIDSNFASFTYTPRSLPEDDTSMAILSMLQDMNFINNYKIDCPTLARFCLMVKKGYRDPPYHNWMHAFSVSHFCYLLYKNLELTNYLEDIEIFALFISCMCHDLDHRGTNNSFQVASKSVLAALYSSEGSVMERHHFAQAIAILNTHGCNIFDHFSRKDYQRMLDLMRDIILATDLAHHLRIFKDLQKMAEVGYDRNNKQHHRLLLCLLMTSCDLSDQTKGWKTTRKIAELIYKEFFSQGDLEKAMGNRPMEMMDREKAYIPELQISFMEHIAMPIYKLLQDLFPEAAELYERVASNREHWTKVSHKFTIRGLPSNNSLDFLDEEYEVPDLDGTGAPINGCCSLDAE

Take `Cc1nc(C(=O)NC2(c3ccc(C(F)(F)F)cc3)CC2)cc(=O)[nH]1` [Example 1, 2-Methyl-6-oxo-N-{1-[4-(trifluoromethyl)phenyl]cyclopropyl}-1,6-dihydropyrimidine-4-carboxamide]: the inhibitory constant (Ki) at Rhesus PDE2A3 (setting [1]) worked out at 21 nM; at Rhesus PDE2A3 (setting [2]) it was 28 nM; on human PDE2A1 (setting [3]) it was 16 nM; at human PDE2A1 (setting [4]) it was 36 nM.
For `Cc1nc(C(=O)N[C@@H](c2ccc(C(F)(F)F)cc2)C(C)(C)C)cc(=O)[nH]1` [Example 249, N-{(1R)-2,2-dimethyl-1-[4-(trifluoromethyl)phenyl]propyl}-2-methyl-6-oxo-1,6-dihydropyrimidine-4-carboxamide], the Ki was determined as 2 nM at Rhesus PDE2A3 (setting [1]), 4.3 nM on Rhesus PDE2A3 (setting [2]) and 4.1 nM on human PDE2A1 (setting [4]).
The like results for `CC(C)(C)[C@@H](NC(=O)c1cc(=O)[nH]c(-c2ccccc2)n1)c1ccc(C(F)(F)F)cc1` [Example 337, N-{(1R)-2,2-dimethyl-1-[4-(trifluoromethyl)phenyl]propyl}-6-oxo-2-phenyl-1,6-dihydropyrimidine-4-carboxamide] were, in that order, 0.4 nM, 1.2 nM and 1.1 nM.
As for `Cc1nc(C(=O)N[C@H](C)c2ccc(C(F)(F)F)c(F)c2)cc(=O)[nH]1` [Example 20, N-{(1R)-1-[3-fluoro-4-(trifluoromethyl)phenyl]ethyl}-2-methyl-6-oxo-1,6-dihydropyrimidine-4-carboxamide], the figures for the inhibitory constant (Ki) on Rhesus PDE2A3 (setting [1]) and on human PDE2A1 (setting [3]) were 25 nM and 24 nM, respectively.
The like results for `O=C(NC1(c2ccc(SC(F)(F)F)c(F)c2)CC1)c1cc(=O)[nH]c(-c2ncccn2)n1` [Example 253, N-(1-{3-fluoro-4-[(trifluoromethyl)sulfanyl]phenyl}cyclopropyl)-6-oxo-1,6-dihydro-2,2′-bipyrimidine-4-carboxamide] were, in that order, 14 nM and 17 nM.
Take `O=C(NC(c1ccc(F)cc1)c1ccc(C(F)(F)F)cc1)c1cc(=O)[nH]c(-c2ccccc2)n1` (stereo not shown) [Example 367, N-{(4-fluorophenyl)[4-(trifluoromethyl)phenyl]methyl}-6-oxo-2-phenyl-1,6-dihydropyrimidine-4-carboxamide]: the Ki amounted to 74 nM on Rhesus PDE2A3 (setting [1]), 314 nM at Rhesus PDE2A3 (setting [2]) and 262 nM on human PDE2A1 (setting [4]).
`O=C(NC1(c2ccc(SC(F)(F)F)c(F)c2)CC1)c1cc(=O)[nH]c(C2CC2)n1` [Example 252, 2-cyclopropyl-N-(1-{3-fluoro-4-[(trifluoromethyl)sulfanyl]phenyl}cyclopropyl)-6-oxo-1,6-dihydropyrimidine-4-carboxamide]: the Ki on Rhesus PDE2A3 (setting [1]) is 8.7 nM; at Rhesus PDE2A3 (setting [2]), 14 nM; on human PDE2A1 (setting [3]) it was around 13 nM; on human PDE2A1 (setting [4]) it was 20 nM.
In the case of `COc1ccc(C(C)(C)c2nc(C(=O)N[C@@H](c3ccc(SC(F)(F)F)c(F)c3)C(C)C)cc(=O)[nH]2)cc1` [Example 491, N-[(1R)-1-{3-fluoro-4-[(trifluoromethyl)sulfanoyl]phenyl}-2-methylpropyl]-2-[1-(4-methoxyphenyl)-1-methylethyl]-6-oxo-1,6-dihydropyrimidine-4-carboxamide], the Ki on Rhesus PDE2A3 (setting [2]) and on human PDE2A1 (setting [4]) was 27 nM throughout.
For the compound `COc1ccc(Cc2nc(C(=O)N[C@@H](c3ccc(S(F)(F)(F)(F)F)cc3)C(C)C)cc(=O)[nH]2)cc1F` [Example 513, 2-(3-fluoro-4-methoxybenzyl)-N-{(1R)-2-methyl-1-[4-(pentafluoro-λ^6-sulfanyl)phenyl]propyl}-6-oxo-1,6-dihydropyrimidine-4-carboxamide], the Ki was 2.1 nM on Rhesus PDE2A3 (setting [2]) and 1.9 nM on human PDE2A1 (setting [4]).
For `CC[C@@H](NC(=O)c1cc(=O)[nH]c(Cc2ccc(OC)cc2)n1)c1ccc(SC(F)(F)F)c(F)c1` [Example 477, N-[(1R)-1-{3-fluoro-4-[(trifluoromethyl)sulfanyl]phenyl}propyl]-2-(4-methoxybenzyl)-6-oxo-1,6-dihydropyrimidine-4-carboxamide], the Ki on Rhesus PDE2A3 (setting [2]) was determined as 1.5 nM; at human PDE2A1 (setting [4]) it was 1.7 nM.
For `COc1ccc(Cc2nc(C(=O)N[C@@H](c3ccc(C(F)(F)F)c(F)c3)C(C)C)cc(=O)[nH]2)cc1F` [Example 514, 2-(3-fluoro-4-methoxybenzyl)-N-{(1R)-1-[3-fluoro-4-(trifluoromethyl)phenyl]-2-methylpropyl}-6-oxo-1,6-dihydropyrimidine-4-carboxamide], the Ki came out at 2.2 nM on Rhesus PDE2A3 (setting [2]) and 1.8 nM at human PDE2A1 (setting [4]).
In the case of `Cc1nc(C(=O)NC(C)c2ccc(C(C)(C)C)cc2)cc(=O)[nH]1` (single isomer, unassigned) [Example 309, (R)- or (S)-N-[1-(4-tert-butylphenyl)ethyl]-2-methyl-6-oxo-1,6-dihydropyrimidine-4-carboxamide], the inhibition constant Ki was found to be 63 nM at Rhesus PDE2A3 (setting [1]) and 43 nM on human PDE2A1 (setting [3]).
As to `CC[C@@H](NC(=O)c1cc(=O)[nH]c(Cc2ccc(OC)cc2)n1)c1ccc(C(F)(F)F)c(F)c1` [Example 483, N-{(1R)-1-[3-fluoro-4-(trifluoromethyl)phenyl]propyl}-2-(4-methoxybenzyl)-6-oxo-1,6-dihydropyrimidine-4-carboxamide], the inhibition constant (Ki) turned out to be 3 nM on Rhesus PDE2A3 (setting [2]) and 2.9 nM at human PDE2A1 (setting [4]).
For the compound `C[C@@H](NC(=O)c1cc(=O)[nH]c(-c2ncccn2)n1)c1ccc(C(F)(F)F)c(Cl)c1` [Example 110, N-{(1R)-1-[3-chloro-4-(trifluoromethyl)phenyl]ethyl}-6-pxo-1,6-dihydro-2,2′-bipyrimidine-4-carboxamide], the figures for the inhibition constant Ki on Rhesus PDE2A3 (setting [1]) and on human PDE2A1 (setting [3]) were 12 nM and 7.2 nM, respectively.
Consider `CC[C@@H](NC(=O)c1cc(=O)[nH]c(Cc2ccc(OC)c(F)c2)n1)c1ccc(OC(F)(F)F)c(F)c1` [Example 528, 2-(3-fluoro-4-methoxybenzyl)-N-{(1R)-1-[3-fluoro-4-(trifluoromethoxy)phenyl]propyl}-6-oxo-1,6-dihydropyrimidine-4-carboxamide], for which the Ki at Rhesus PDE2A3 (setting [2]) turned out to be 1.2 nM; at human PDE2A1 (setting [4]), 1.1 nM.
Regarding `CC[C@@H](NC(=O)c1cc(=O)[nH]c(C)n1)c1ccc(SC(F)(F)F)c(F)c1` [Example 54, N-[(1R)-1-{3-fluoro-4-[(trifluoromethyl)sulfanyl]phenyl}propyl]-2-methyl-6-oxo-1,6-dihydropyrimidine-4-carboxamide], the Ki was determined as 9.7 nM at Rhesus PDE2A3 (setting [1]) and 5.5 nM at human PDE2A1 (setting [3]).
Regarding `COCc1nc(C(=O)N[C@@H](c2ccc(C(F)(F)F)c(F)c2)C2CC2)cc(=O)[nH]1` [Example 115, N-{(R)-cyclopropyl[3-fluoro-4-(trifluoromethyl)phenyl]methyl}-2-(methoxymethyl)-6-oxo-1,6-dihydropyrimidine-4-carboxamide], the figures for the inhibition constant Ki at Rhesus PDE2A3 (setting [1]) and on human PDE2A1 (setting [3]) were 73 nM and 15 nM, respectively.
In the case of `C[C@@H](NC(=O)c1cc(=O)[nH]c(Cc2cccnc2)n1)c1ccc(C(F)(F)F)cc1` [Example 6, 6-oxo-2-(pyridin-3-ylmethyl)-N-{(1R)-1-[4-(trifluoromethyl)phenyl]ethyl}-1,6-dihydropyrimidine-4-carboxamide], the Ki came out at 55 nM on Rhesus PDE2A3 (setting [1]) and 33 nM on human PDE2A1 (setting [3]).
Take `Cc1nc(C(=O)NC(CO)c2ccc(C(F)(F)F)cc2)cc(=O)[nH]1` (single isomer, unassigned) [Example 312, (R)- or (S)-N-{2-hydroxy-1-[4-(trifluoromethyl)phenyl]ethyl}-2-methyl-6-oxo-1,6-dihydropyrimidine-4-carboxamide]: the Ki at Rhesus PDE2A3 (setting [1]) came out at 71 nM; on human PDE2A1 (setting [3]), 41 nM; on human PDE2A1 (setting [4]), 52 nM.
As to `Cc1nc(C(=O)N[C@@H](c2ccc(SC(F)(F)F)c(F)c2)C2CC2)cc(=O)[nH]1` [Example 55, N-[(R)-cyclopropyl{3-fluoro-4-[(trifluoromethyl)sulfanyl]phenyl}methyl]-2-methyl-6-oxo-1,6-dihydropyrimidine-4-carboxamide], the inhibition constant Ki on Rhesus PDE2A3 (setting [1]) amounted to 11 nM; at human PDE2A1 (setting [3]), 7.8 nM.
For the compound `CC[C@@H](NC(=O)c1cc(=O)[nH]c(Cc2ccc(OC)cc2)n1)c1ccc(S(F)(F)(F)(F)F)cc1` [Example 482, 2-(4-methoxybenzyl)-6-oxo-N-{(1R)-1-[4-(pentafluoro-λ^6-sulfanyl)phenyl]propyl}-1,6-dihydropyrimidine-4-carboxamide], the Ki on Rhesus PDE2A3 (setting [2]) is 3.3 nM; at human PDE2A1 (setting [4]), 3.4 nM.
With `COc1ccc(C(C)(C)c2nc(C(=O)N[C@@H](c3ccc(C(F)(F)F)cc3)C(C)C)cc(=O)[nH]2)cc1` [Example 493, 2-[1-(4-methoxyphenyl)-1-methylethyl]-N-{(1R)-2-methyl-1-[4-(trifluoromethyl)phenyl]propyl}-6-oxo-1,6-dihydropyrimidine-4-carboxamide], the values for the inhibitory constant (Ki) at Rhesus PDE2A3 (setting [2]) and at human PDE2A1 (setting [4]) were 77 nM and 62 nM, respectively.
As for `CC(C)[C@@H](NC(=O)c1cc(=O)[nH]c(-c2ccccc2)n1)c1ccc(OC(F)(F)F)cc1` [Example 166, N-{(1R)-2-methyl-1-[4-(trifluoromethoxy)phenyl]propyl}-6-oxo-2-phenyl-1,6-dihydropyrimidine-4-carboxamide], the inhibition constant (Ki) was determined as 3.3 nM on Rhesus PDE2A3 (setting [1]) and 2.1 nM at human PDE2A1 (setting [3]).
The like results for `Cc1nc(C(=O)N[C@@H](c2ccc(OC(F)(F)F)c(F)c2)C(C)C)cc(=O)[nH]1` [Example 38, N-{(1R)-1-[3-fluoro-4-(trifluoromethoxy)phenyl]-2-methylpropyl}-2-methyl-6-oxo-1,6-dihydropyrimidine-4-carboxamide] were, in that order, 7.8 nM and 5.6 nM.
On to `CC(NC(=O)c1cc(=O)[nH]c(-c2ccccc2)n1)c1ccc(C(F)(F)F)cn1` (stereo not shown) [Example 149, 6-oxo-2-phenyl-N-{1-[5-(trifluoromethyl)pyridin-2-yl]ethyl}-1,6-dihydropyrimidine-4-carboxamide], for which the Ki on Rhesus PDE2A3 (setting [1]) was 204 nM; at human PDE2A1 (setting [3]), 117 nM.

As a reminder, the Ki is the equilibrium dissociation constant of an inhibitor or competing ligand from its target.
